Results from US20080107761A1, “Composition and Method For Promoting the Production of and/or Enhancing the Activity of Fibulin-5” (Shiseido Company, Ltd., priority 2004, published 2008).

System: fibulin-5 mRNA
Assay: Expression and determination of fibulin-5 mRNA in human fibroblasts by quantitative PCR
Assay type: cell-based
Details: for Effect on fibulin-5 production in human fibroblasts (% of the control) Mean ± SD: 24 hours culture, relative to no-addition control; for Effect of promoting fibulin-5 production (in words): summary of Table 1
Method: Adhering cells were suspended by a trypsin-ethylenediaminetetraacetic acid (EDTA) treatment and then filtered to obtain a homogeneous cell suspension. Cells were collected by centrifugation and suspended at 0.2x10^6 cells/ml. Three ml each of the cell suspension was inoculated to a 6-well plate. After the cells adhered, the medium was replaced with a 0.25% by weight FBS-containing DMEM. After culturing at 37° C for 24 hours, the medium was replaced with 0.25% by weight FBS-containing DMEM containing either of a few dozen of pharmaceutical agents. After culturing for further 24 hours, the culture supernatant was removed, and mRNA was recovered by the ABI PRISM 6100 Nucleic Acid PrepStation Kit (Applied Biosystems). […] The primers and probes used in this Example are as follows: The determination of mRNA expression was conducted in three groups, and was expressed in percentage relative to the mean of the no-addition control group.

Structure (SMILES) | Effect on fibulin-5 production in human fibroblasts (% of the control) Mean ± SD (25 μg/ml (0.0025% by weight)) | Effect on fibulin-5 production in human fibroblasts (% of the control) Mean ± SD (250 μg/ml (0.025% by weight)) | Effect of promoting fibulin-5 production (in words)
O=P(O)(O)O[C@H]1[C@H](OP(=O)(O)O)[C@@H](OP(=O)(O)O)[C@H](OP(=O)(O)O)[C@@H](OP(=O)(O)O)[C@H]1OP(=O)(O)O [phytic acid, myo-inositol hexakis- phosphate] | 93.0 ± 24.4 % of the control | 126.1 ± 16.4 % of the control | significant effect of promoting fibulin-5 production
O=C(O)[C@@H]1C[C@@H](O)CN1 [L-hydroxyproline, (2S,4R)-4-hydroxypyrrolidine-2-carboxylic acid] | 110.1 ± 11.0 % of the control | 147.3 ± 8.9 % of the control | significant effect of promoting fibulin-5 production
